Patent US20120149775A1, “METHODS FOR PREVENTING AND IMPROVING SKIN ELASTIC PROPERTY LOSS” (SHISEIDO COMPANY, LTD., priority 2010, published 2012)

Key:
Assay type in all cases: cell-based
mouse 3T3-L1 cell = assay: Mouse fibroblast proliferation (alamar Blue); conditions: 48 hours
Procedure: The cell employed was a mouse 3T3-L1 cell. This cell was inoculated. at 3×10^4 cells/mL to a commercially available 24-well culture plate (353047, FALCON, Becton, Dickinson and Company Japan), where it was cultured in a commercially available cell culture medium (D-MEM, 11885084, GIBCO, Life Technologies Japan Ltd.) supplemented with 10% bovine serum (16010159, GIBCO, Life Technologies Japan Ltd.). The cell was cultured for about 6 hours in 5% CO2 and saturated water vapor atmosphere at 37° C. Thereafter, the culture medium for culturing the mouse fibroblast was switched to a medium which was the above-mentioned cell culture medium supplemented with 0.5% bovine serum (hereinafter referred to as “mouse fibroblast proliferation evaluation medium”), where the mouse fibroblast was cultured for 12 hours in 5% CO2 and saturated water vapor atmosphere at 37° C. When investigating the effects of saturated and unsaturated fatty acids on the proliferation of the fibroblast, 5 μM and 10 μM palmitic acid (S-33, Wako Pure Chemical Industries, Ltd.), 5 μM and 10 μM oleic acid (07501, Sigma Aldrich Japan K.K.) or 1 μM, 3 μM and 10 μM stearic acid ([…], Sigma Aldrich Japan. K.K.) was added after 12 hours to the mouse fibroblast proliferation evaluation medium), and the fibroblast was cultured for 48 hours in 5% CO2 and saturated water vapor atmosphere at 37° C. As a control, the cell was cultured in a culture medium without these saturated fatty acids and unsaturated fatty acid. […] The cell proliferation rate (%) was calculated as a percentage of the quotient obtained by dividing the fluorescent intensity of the alamar Blue under each experiment condition by the fluorescent intensity in the control group supplemented with no saturated or unsaturated fatty acids.

[1] = test system: type I collagen α chain gene expression; assay: Type I collagen α chain gene expression in mouse fibroblast (real-time PCR); conditions: for suppressive effect on the gene expression of type I collagen α chain: data not shown
Procedure: (§1) The cell culture and the addition of palmitic acid were conducted similarly to Example 1. The mouse fibroblast was inoculated to and incubated in a commercially available 12-well culture plate (353043, FALCON, Becton, Dickinson and Company Japan) at 3×10^4 cells/mL. The culture medium was removed using an aspirator, and each well was washed twice with each 2 ml of PBS. An RNA was extracted from each cell in each well using an RNeasy Protect Kit (74104, Qiagen) according to Manufacturer's instructions. A cDNA was produced according to a standard method and used in a real-time PCR. This real-time PCR employed LightCycler (registered trademark) FastStart DNA Master^PLUS SYBR Green I (Catalog No. 03 515 885 001, Roche Diagnostic K.K.). For amplifying type I collagen α chain, elastin, matrix metalloproteinase 13 and 28S rRNA genes, the forward and reverse primers of SEQ ID NO: 1 and 2, SEQ ID NO: 3 and 4, SEQ ID NO: 5 and 6 and SEQ ID NO: 7 and 8, respectively, were employed. The PCR was conducted under a reaction condition involving 1 cycle of 95° C. for 10 minutes and 35 cycles of 95° C. for 15 seconds, 60° C. for 5 seconds and 72° C. for 5 seconds. The expression levels of type I collagen α chain, elastin and matrix metalloproteinase 13 gene were analyzed by using LightCycler Software Ver. 3.5 (Roche Diagnostic K.K.) and normalized on the basis of the expression level of 28S rRNA. The gene expressions level of the type I collagen α chain, elastin and matrix metalloproteinase 13 were calculated as percentages of the quotients obtained by dividing the gene expression rates (%) under each experimental condition by the gene expression levels in the control groups containing no palmitic acid.

elastin gene expression [2] = assay: Elastin gene expression in mouse fibroblast (real-time PCR); conditions: for suppressive effect on the gene expression of elastin: data not shown
Procedure: as §1

[3] = test system: matrix metalloproteinase 13 gene expression; assay: Matrix metalloproteinase 13 gene expression in mouse fibroblast (real-time PCR); conditions: for promotive effect on the gene expression of matrix metalloproteinase 13: data not shown
Procedure: as §1

human fibroblast = assay: Human fibroblast proliferation (alamar Blue); conditions: 5 μM to 30 μM, dependent on concentration (FIG. 7)
Procedure: Thereafter, alamar Blue (Trade mark, DAL1025, Invitrogen, Life Technologies Japan Ltd.) was added to the culture medium at a final concentration of 10%, and its supernatant was examined for the fluorescent intensity 2 hours later with an excitation wavelength of 544 nm and a fluorescent intensity of 590 nm in accordance with the manufacture's instruction. The cell proliferation rate (%) was calculated as a percentage of the quotient obtained by dividing the fluorescent intensity of the alamar Blue under each experiment condition by the fluorescent intensity in the control group supplemented with no saturated or unsaturated fatty acids. The cell culture, the addition of palmitic acid and the determination of the % of proliferation of the fibroblast were conducted similarly to Example 1. The human fibroblast (CC-2509, Lonza Japan Ltd.) was incubated for 6 hours in a commercially available cell culture medium (D-MEM, 11885084, GIBCO, Life Technologies Japan Ltd.) supplemented with 10% of fetal bovine serum (FBS) (Biowest). Thereafter, the culture medium for incubating the human fibroblast was switched to the cell culture medium supplemented with 0.5% of fetal bovine serum (hereinafter referred to as “human fibroblast proliferation evaluation medium”) and the human fibroblast was incubated at 37° C. and 5% CO2 under a saturated water vapor atmosphere for 12 hours. […]

[4] = test system: type I collagen α chain gene expression; assay: Type I collagen α chain gene expression in human fibroblast (real-time PCR); conditions: 10 μM and 30 μM, dependent on concentration (FIG. 8)
Procedure: (§2) The culture medium was removed using an aspirator, and each well was washed twice with each 2 ml of PBS. An RNA was extracted from each cell in each well using an RNeasy Protect Kit (74104, Qiagen) according to Manufacturer's instructions. A cDNA was produced according to a standard method and used in a real-time PCR. This real-time PCR employed LightCycler (registered trademark) FastStart DNA Master^PLUS SYBR Green I (Catalog No. 03 515 885 001, Roche Diagnostic K.K.). […] The expression levels of type I collagen α chain, elastin and matrix metalloproteinase 13 gene were analyzed by using LightCycler Software Ver. […] The gene expressions level of the type I collagen α chain, elastin and matrix metalloproteinase 13 were calculated as percentages of the quotients obtained by dividing the gene expression rates (%) under each experimental condition by the gene expression levels in the control groups containing no palmitic acid. […] The quantification of gene expression was conducted similarly to Example 2. […] The % gene expressions of the type I collagen α chain, elastin and matrix metalloproteinase 1 were calculated as percentages of the quotients obtained by dividing the gene expression levels under each experimental condition by the gene expression levels in the control groups containing no palmitic acid.

elastin gene expression [5] = assay: Elastin gene expression in human fibroblast (real-time PCR); conditions: 3 μM to 30 μM, dependent on concentration (FIG. 9)
Procedure: as §2

[6] = test system: matrix metalloproteinase 1 gene expression; assay: Matrix metalloproteinase 1 gene expression in human fibroblast (real-time PCR); conditions: 10 μM and 30 μM, dependent on concentration (FIG. 10)
Procedure: as §2

mouse fibroblast = assay: Effect of EPA and palmitic acid on fibroblast proliferation (alamar Blue); conditions: palmitic acid at 10 μM alone (FIG. 11)
Procedure: The cell employed was a mouse 3T3-L1 cell. This cell was inoculated. at 3×10^4 cells/mL to a commercially available 24-well culture plate (353047, FALCON, Becton, Dickinson and Company Japan), where it was cultured in a commercially available cell culture medium (D-MEM, 11885084, GIBCO, Life Technologies Japan Ltd.) supplemented with 10% bovine serum (16010159, GIBCO, Life Technologies Japan Ltd.). The cell was cultured for about 6 hours in 5% CO2 and saturated water vapor atmosphere at 37° C. Thereafter, the culture medium for culturing the mouse fibroblast was switched to a medium which was the above-mentioned cell culture medium supplemented with 0.5% bovine serum (hereinafter referred to as “mouse fibroblast proliferation evaluation medium”), where the mouse fibroblast was cultured for 12 hours in 5% CO2 and saturated water vapor atmosphere at 37° C. […] The cell proliferation rate (%) was calculated as a percentage of the quotient obtained by dividing the fluorescent intensity of the alamar Blue under each experiment condition by the fluorescent intensity in the control group supplemented with no saturated or unsaturated fatty acids. […]

| SMILES | cell proliferation (mouse 3T3-L1 cell; 1 μM to 10 μM, vs control (FIG. 3)) | suppressive effect on the gene expression of type I collagen α chain [1] | suppressive effect on the gene expression of elastin (elastin gene expression [2]) | promotive effect on the gene expression of matrix metalloproteinase 13 [3] | cell proliferation (mouse 3T3-L1 cell; 5 μM and 10 μM, vs control (FIG. 2)) | cell proliferation (mouse 3T3-L1 cell; 10 μM, vs control (FIG. 1)) | type I collagen α chain gene expression ([1]; 10 μM, vs control (FIG. 4)) | elastin gene expression (elastin gene expression [2]; 10 μM, vs control (FIG. 5)) | matrix metalloproteinase 13 gene expression ([3]; 10 μM, vs control (FIG. 6)) | cell proliferation (human fibroblast) | type I collagen α chain gene expression [4] | elastin gene expression (elastin gene expression [5]) | matrix metalloproteinase 1 gene expression [6] | cell proliferation (mouse fibroblast) |
| --- | --- | --- | --- | --- | --- | --- | --- | --- | --- | --- | --- | --- | --- | --- |
| CCCCCCCCCCCCCCCCCC(=O)O [stearic acid] | no statistically significant reduction | did not have a suppressive effect | did not have a suppressive effect | did not have | – | – | – | – | – | – | – | – | – | – |
| CCCCCCCC/C=C\CCCCCCCC(=O)O [oleic acid] | – | did not have a suppressive effect | did not have a suppressive effect | did not have | statistically significant reduction | – | – | – | – | – | – | – | – | – |
| CCCCCCCCCCCCCCCC(=O)O [palmitic acid] | – | – | – | – | – | statistically significant reduction | statistically significant reduction | statistically significant reduction | statistically significant increase | statistically significant reduction | statistically significant reduction | statistically significant reduction | statistically significant increase | reduced markedly |
